Consider 25 molecules from patent US7585859B2, “PDE4B inhibitors and uses therefor” (Plexxikon, Inc., priority 2004, dated 2009).

Like-named read-outs stand apart in the source and are kept apart here.

The target in one experiment is T1, PDE4D (Homo sapiens, UniProt Q08499).
T1 construct: PDE4D: The catalytic domain of human PDE4B from S3 16-V692; His6 (N); thrombin cleavage site (N); made in house; host or cells: E. coli
In words: PDE4 IC50 determination by Scintillation Proximity Assay, PDE4D. Format: biochemical. The method, boiled down: (§1)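 Hydrolysis of [^3H]cAMP measured by SPA with yttrium silicate beads, which bind the [^3H]AMP product strongly and cAMP weakly. Enzyme at 80 ng/ml for PDE4B, 4 ng/ml for PDE4D; 30 min at 30°.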

Experiment [1] concerns the target T2, PDE4B: The catalytic domain of human PDE4B from S152-S528 (Homo sapiens, UniProt Q07343).
T2 construct: His6 (N); thrombin cleavage site (N); made in house; host or cells: E. coli
In words: PDE4 IC50 determination by Scintillation Proximity Assay, PDE4B. Format: biochemical. The gist of the method: as §1
(SPA uses beads or plates that emit light when radiolabelled molecules are held near them.)

Where [2] appears, read: Table 3A, Formula III compounds, read-out: IC50 PDE4D.
[3] abbreviates: Table 3A, Formula III compounds, read-out: IC50 PDE4B.
Setting [4] is: Table 1B, Formula I compounds, read-out: IC50 PDE4D.
[5] abbreviates: Table 1B, Formula I compounds, read-out: IC50 PDE4B.
Where [6] appears, read: second part of Table 2B (2-23 to 2-103), column 5, column is PDE4D in first part, read-out: IC 50 vs. indicated assay h TNFα.
The mark [7] stands for this setting: second part of Table 2B (2-23 to 2-103), column 3, column is PDE4B in first part, read-out: IC 50 vs. indicated assay h TNFα.
[8] abbreviates: first part of Table 2B (2-1 to 2-22), read-out: IC 50 vs. indicated assay PDE4D.
The mark [9] stands for this setting: first part of Table 2B (2-1 to 2-22), read-out: IC 50 vs. indicated assay PDE4B.

T2 sequence (Q07343 with tags, fused parts or gaps): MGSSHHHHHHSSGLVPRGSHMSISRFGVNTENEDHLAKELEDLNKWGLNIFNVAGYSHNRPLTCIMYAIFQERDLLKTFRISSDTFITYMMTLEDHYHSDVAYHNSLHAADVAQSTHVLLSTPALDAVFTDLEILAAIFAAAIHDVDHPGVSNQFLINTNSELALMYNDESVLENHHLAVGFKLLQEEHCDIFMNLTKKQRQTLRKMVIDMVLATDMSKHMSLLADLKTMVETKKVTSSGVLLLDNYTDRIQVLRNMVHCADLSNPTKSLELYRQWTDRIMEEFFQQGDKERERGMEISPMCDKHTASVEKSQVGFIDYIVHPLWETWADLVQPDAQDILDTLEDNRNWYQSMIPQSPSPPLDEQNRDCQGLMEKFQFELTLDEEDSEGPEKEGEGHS
T1 sequence (Q08499 380-756): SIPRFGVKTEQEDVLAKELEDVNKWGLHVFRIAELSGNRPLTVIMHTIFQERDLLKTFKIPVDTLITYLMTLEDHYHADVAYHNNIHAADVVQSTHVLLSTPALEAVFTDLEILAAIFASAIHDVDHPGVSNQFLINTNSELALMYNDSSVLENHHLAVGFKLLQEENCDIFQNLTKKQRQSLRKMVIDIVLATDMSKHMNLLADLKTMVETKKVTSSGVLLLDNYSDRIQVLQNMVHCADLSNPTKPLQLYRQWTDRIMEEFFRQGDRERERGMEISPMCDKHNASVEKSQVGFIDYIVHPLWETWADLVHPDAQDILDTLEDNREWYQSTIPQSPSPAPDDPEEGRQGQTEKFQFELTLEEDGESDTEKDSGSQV

On to `COc1cc(NS(=O)(=O)c2ccc(Br)s2)c2ncccc2c1` [Compound 3-2, 5-Bromo-thiophene-2-sulfonic acid (6-methoxy-quinolin-8-yl)-amide], for which the IC50 (at PDE4D (setting [2]); in experiment [1] (setting [3])) was over 10 µM each time.

Consider `COc1cc(NS(=O)(=O)c2cccc(F)c2)c2ncccc2c1` [Compound 3-56, 3-Fluoro-N-(6-methoxy-quinolin-8-yl)-benzenesulfonamide], for which the IC50 (on PDE4D (setting [2]); in experiment [1] (setting [3])) was over 10 µM in each case.

Take `COc1cc(NS(=O)(=O)c2ccc(-c3ccccn3)s2)c2ncccc2c1` [Compound 3-31, 5-Pyridin-2-yl-thiophene-2-sulfonic acid (6-methoxy-quinolin-8-yl)-amide]: the values for the IC50 (on PDE4D (setting [2]); in experiment [1] (setting [3])) were over 10 µM and under 10 µM, respectively.

Turning to `COc1cc(NS(=O)(=O)c2ccc(-c3ccnc(SC)n3)s2)c2ncccc2c1` [Compound 3-14, 5-(2-Methylsulfanyl-pyrimidin-4-yl)-thiophene-2-sulfonic acid (6-methoxy-quinolin-8-yl)-amide], the IC50 (at PDE4D (setting [2]); in experiment [1] (setting [3])) was under 10 µM throughout.

Take `Cc1onc(-c2ccccc2)c1C(=O)c1sc(Nc2ccccc2F)c(C#N)c1N` [Compound 1-128, 4-Amino-2-(2-fluoro-phenylamino)-5-(5-methyl-3-phenyl-isoxazole-4-carbonyl)-thiophene-3-carbonitrile]: the IC50 (at PDE4D (setting [4]); in experiment [1] (setting [5])) was under 10 µM in each case.

In the case of `COc1cc(NS(=O)(=O)c2ccccc2C)c2ncccc2c1` [Compound 3-57, N-(6-Methoxy-quinolin-8-yl)-2-methyl-benzenesulfonamide], the IC50 (at PDE4D (setting [2]); in experiment [1] (setting [3])) was over 10 µM throughout.

As to `COC(=O)C(CCSC)Nc1sc(C(=O)c2cc(OC)ccc2OC)c(N)c1C#N` (centres unmarked) [Compound 1-95, 2-[4-Amino-3-cyano-5-(2,5-dimethoxy-benzoyl)-thiophen-2-ylamino]-4-methylsulfanyl-butyric acid methyl ester], the figures for the IC50 (on PDE4D (setting [4]); in experiment [1] (setting [5])) were over 10 µM and under 10 µM, respectively.

As to `Nc1nc(Nc2ccccc2)sc1C(=O)c1ccccc1` [Compound 2-25, (4-Amino-2-phenylamino-thiazol-5-yl)-phenyl-methanone], the IC50 (at PDE4D (setting [6]); in experiment [1] (setting [7])) was under 10 µM each time.

As to `N#Cc1c(NC2CCCC2)sc(C(=O)C2CC2)c1N` [Compound 1-179, 4-Amino-2-cyclopentylamino-5-cyclopropanecarbonyl-thiophene-3-carbonitrile], the IC50 (on PDE4D (setting [4]); in experiment [1] (setting [5])) was under 10 µM in each case.

For the molecule `COc1ccc(Nc2nc(N)c(C(=O)c3cc(-c4ccccc4)no3)s2)cc1` [Compound 2-7, [4-Amino-2-(4-methoxy-phenylamino)-thiazol-5-yl]-(3-phenyl-isoxazol-5-yl)-methanone], the IC50 (on PDE4D (setting [8]); in experiment [1] (setting [9])) was under 10 µM each time.

Regarding `Nc1nc(NC2CC2)sc1C(=O)c1cc(-c2ccccc2)no1` [Compound 2-10, (4-Amino-2-cyclopropylamino-thiazol-5-yl)-(3-phenyl-isoxazol-5-yl)-methanone], the IC50 (at PDE4D (setting [8]); in experiment [1] (setting [9])) was under 10 µM each time.

On to `CCOC(=O)c1cc(C(=O)c2sc(NC3CCCC3)nc2N)on1` [Compound 2-4, 5-(4-Amino-2-cyclopentylamino-thiazole-5-carbonyl)-isoxazole-3-carboxylic acid ethyl ester], for which the IC50 (on PDE4D (setting [8]); in experiment [1] (setting [9])) was under 10 µM in each case.

Take `COC(=O)C(CCSC)Nc1sc(C(=O)c2ccc(C)cc2C)c(N)c1C#N` (centres unmarked) [Compound 1-88, 2-[4-Amino-3-cyano-5-(2,4-dimethyl-benzoyl)-thiophen-2-ylamino]-4-methylsulfanyl-butyric acid methyl ester]: the IC50 on PDE4D (setting [4]) was over 10 µM; in experiment [1] (setting [5]) it was under 10 µM.

Consider `CSc1nccc(-c2ccc(S(=O)(=O)Nc3c(C)ccc4cccnc34)s2)n1` [Compound 3-15, 5-(2-Methylsulfanyl-pyrimidin-4-yl)-thiophene-2-sulfonic acid (7-methyl-quinolin-8-yl)-amide], for which the IC50 (on PDE4D (setting [2]); in experiment [1] (setting [3])) was over 10 µM in each case.

In the case of `CCOC(=O)c1cc(C(=O)c2sc(Nc3ccc(C(=O)NC4CCOC4=O)cc3)c(C#N)c2N)on1` (centres unmarked) [Compound 1-138], the IC50 (on PDE4D (setting [4]); in experiment [1] (setting [5])) was under 10 µM throughout.

With `N#Cc1cccc(Nc2nc(N)c(C(=O)c3cccc(Cl)c3)s2)c1` [Compound 2-52, 3-[4-Amino-5-(3-chloro-benzoyl)-thiazol-2-ylamino]-benzonitrile], the IC50 (at PDE4D (setting [6]); in experiment [1] (setting [7])) was under 10 µM each time.

For `COC(=O)C(CC(C)C)Nc1sc(C(=O)c2ccc(C)cc2C)c(N)c1C#N` (centres unmarked) [Compound 1-87, 2-[4-Amino-3-cyano-5-(2,4-dimethyl-benzoyl)-thiophen-2-ylamino]-4-methyl-pentanoic acid methyl ester], the IC50 (at PDE4D (setting [4]); in experiment [1] (setting [5])) was over 10 µM each time.

For the molecule `COc1ccc(CNc2sc(C(=O)c3cnn(-c4ccccc4)c3C)c(N)c2C#N)cc1OC` [Compound 1-54, 4-Amino-2-(3,4-dimethoxy-benzylamino)-5-(5-methyl-1-phenyl-1H-pyrazole-4-carbonyl)-thiophene-3-carbonitrile], the IC50 (on PDE4D (setting [4]); in experiment [1] (setting [5])) was under 10 µM each time.

In the case of `COc1cccc(C(=O)c2sc(Nc3ccc(Oc4ccccc4)cc3)nc2N)c1` [Compound 2-65, [4-Amino-2-(4-phenoxy-phenylamino)-thiazol-5-yl]-(3-methoxy-phenyl)-methanone], the IC50 (on PDE4D (setting [6]); in experiment [1] (setting [7])) was under 10 µM each time.

In the case of `COC(=O)C(CCSC)Nc1sc(C(=O)c2ccccn2)c(N)c1C#N` (centres unmarked) [Compound 1-65, 2-[4-Amino-3-cyano-5-(pyridine-2-carbonyl)-thiophen-2ylamino]-4-methylsulfanyl-butyric acid methyl ester], the IC50 (at PDE4D (setting [4]); in experiment [1] (setting [5])) was over 10 µM in each case.

On to `COc1ccc(Nc2sc(C(=O)c3ccc(OC)cc3OC)c(N)c2C#N)cc1` [Compound 1-101, 4-Amino-5-(2,4-dimethoxy-benzoyl)-2-(4-methoxy-phenylamino)-thiophene-3-carbonitrile], for which the IC50 (at PDE4D (setting [4]); in experiment [1] (setting [5])) was under 10 µM throughout.

For the molecule `CC(C)Nc1nc(N)c(C(=O)c2cc(-c3ccccc3)no2)s1` [Compound 2-11, (4-Amino-2-isopropylamino-thiazol-5-yl)-(3-phenyl-isoxazol-5-yl)-methanone], the IC50 (at PDE4D (setting [8]); in experiment [1] (setting [9])) was under 10 µM in each case.

Regarding `COC(=O)C(CCSC)Nc1sc(C(=O)c2csc3ccccc23)c(N)c1C#N` (centres unmarked) [Compound 1-122, 2-[4-Amino-5-(benzo[b]thiophene-3-carbonyl)-3-cyano-thiophen-2-ylamino]-4-methylsulfanyl-butyric acid methyl ester], the IC50 (at PDE4D (setting [4]); in experiment [1] (setting [5])) was under 10 µM throughout.

`Cc1ccc(S(=O)(=O)Nc2ccc(Br)c3cccnc23)cc1` [Compound 3-47, N-(5-Bromo-quinolin-8-yl)-4-methyl-benzenesulfonamide]: the IC50 (at PDE4D (setting [2]); in experiment [1] (setting [3])) was over 10 µM throughout.

For the molecule `Nc1nc(NC2CCCC2)sc1C(=O)c1cc(-c2ccc(Cl)cc2)no1` [Compound 2-12, (4-Amino-2-cyclopentylamino-thiazol-5-yl)-[3-(4-chloro-phenyl)-isoxazol-5-yl]-methanone], the IC50 (at PDE4D (setting [8]); in experiment [1] (setting [9])) was under 10 µM throughout.
